Data taken from patent publication US20230072683A1, “PYRIDO-PYRIMIDIN DERIVATIVES AND PHARMACEUTICAL COMPOSITION, FOR USE IN PREVENTING OR TREATING PI3 KINASE RELATED DISEASES, COMPRISING SAME AS ACTIVE INGREDIENT” (BORYUNG PHARMACEUTICAL CO., LTD, priority 2019, published 2023).

Legend:
DNA-PK(h) = DNA-PK(h) (Homo sapiens, UniProt P78527); assay: Evaluation of inhibitory activity against DNA-PK (HTRF kinase assay, GST-cMyc-p53 substrate); format: biochemical; conditions: compound at 0.1 μM; read-out: EXP_VALUE(% Inhibition) DNA-PK(h) 0.1 μM
Outline: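 Human DNA-PK with 50 μM GST-cMyc-p53 substrate; reaction started with Mg/ATP, run 30 min at room temperature, stopped with EDTA. Phospho-Ser15 p53 detected by HTRF (Eu anti-phospho-Ser15, d2 anti-GST), signal = 10000×(Em 665/Em 620).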

[1] = target: PI3K-δ (PI3K(p1108/p857) (h)) (Homo sapiens, UniProt O00329); assay: Evaluation of inhibitory activity against PI3K-δ (HTRF kinase assay); format: biochemical; conditions: compound at 0.1 μM; read-out: EXP_VALUE(% Inhibition) PI3K-δ 0.1 μM
Outline: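 HTRF read-out (665/620 nm ratio ×10000) used Eu-labelled anti-GST, GST-tagged GRP1 PH domain and streptavidin-allophycocyanin after EDTA/PIP3 stop.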

PI3K-δ (PI3K(p1108/p857) (h)), sequence (O00329 whole entry, the tested form may be a part): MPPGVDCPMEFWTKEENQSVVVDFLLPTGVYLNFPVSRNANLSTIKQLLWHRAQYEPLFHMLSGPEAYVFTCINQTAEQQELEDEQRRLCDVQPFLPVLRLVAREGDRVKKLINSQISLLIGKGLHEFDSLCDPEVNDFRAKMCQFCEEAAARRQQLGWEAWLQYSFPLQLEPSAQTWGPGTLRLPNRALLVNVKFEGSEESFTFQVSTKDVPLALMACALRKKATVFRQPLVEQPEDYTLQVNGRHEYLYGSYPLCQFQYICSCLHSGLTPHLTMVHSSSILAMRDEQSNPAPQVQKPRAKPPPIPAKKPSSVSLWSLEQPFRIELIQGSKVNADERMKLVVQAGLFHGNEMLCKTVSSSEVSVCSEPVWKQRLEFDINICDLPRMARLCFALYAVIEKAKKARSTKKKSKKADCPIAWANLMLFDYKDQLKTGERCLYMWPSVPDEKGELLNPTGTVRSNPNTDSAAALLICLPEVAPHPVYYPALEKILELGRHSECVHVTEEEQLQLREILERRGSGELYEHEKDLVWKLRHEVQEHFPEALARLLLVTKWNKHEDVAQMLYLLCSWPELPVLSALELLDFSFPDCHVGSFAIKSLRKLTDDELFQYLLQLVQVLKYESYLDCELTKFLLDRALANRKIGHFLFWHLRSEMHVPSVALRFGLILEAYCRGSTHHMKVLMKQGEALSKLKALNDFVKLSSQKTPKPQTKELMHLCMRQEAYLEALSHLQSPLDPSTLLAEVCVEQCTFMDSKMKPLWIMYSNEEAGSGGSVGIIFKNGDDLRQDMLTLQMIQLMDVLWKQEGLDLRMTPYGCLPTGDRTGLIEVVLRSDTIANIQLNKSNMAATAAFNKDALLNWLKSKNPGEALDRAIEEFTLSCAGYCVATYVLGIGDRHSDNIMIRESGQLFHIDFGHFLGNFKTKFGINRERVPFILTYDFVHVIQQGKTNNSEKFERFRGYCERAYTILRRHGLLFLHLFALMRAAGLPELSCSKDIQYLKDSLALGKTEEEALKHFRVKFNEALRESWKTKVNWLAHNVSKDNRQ
PI3K-δ (PI3K(p1108/p857) (h)), sequence (P27986 whole entry partner, the tested form may be a part): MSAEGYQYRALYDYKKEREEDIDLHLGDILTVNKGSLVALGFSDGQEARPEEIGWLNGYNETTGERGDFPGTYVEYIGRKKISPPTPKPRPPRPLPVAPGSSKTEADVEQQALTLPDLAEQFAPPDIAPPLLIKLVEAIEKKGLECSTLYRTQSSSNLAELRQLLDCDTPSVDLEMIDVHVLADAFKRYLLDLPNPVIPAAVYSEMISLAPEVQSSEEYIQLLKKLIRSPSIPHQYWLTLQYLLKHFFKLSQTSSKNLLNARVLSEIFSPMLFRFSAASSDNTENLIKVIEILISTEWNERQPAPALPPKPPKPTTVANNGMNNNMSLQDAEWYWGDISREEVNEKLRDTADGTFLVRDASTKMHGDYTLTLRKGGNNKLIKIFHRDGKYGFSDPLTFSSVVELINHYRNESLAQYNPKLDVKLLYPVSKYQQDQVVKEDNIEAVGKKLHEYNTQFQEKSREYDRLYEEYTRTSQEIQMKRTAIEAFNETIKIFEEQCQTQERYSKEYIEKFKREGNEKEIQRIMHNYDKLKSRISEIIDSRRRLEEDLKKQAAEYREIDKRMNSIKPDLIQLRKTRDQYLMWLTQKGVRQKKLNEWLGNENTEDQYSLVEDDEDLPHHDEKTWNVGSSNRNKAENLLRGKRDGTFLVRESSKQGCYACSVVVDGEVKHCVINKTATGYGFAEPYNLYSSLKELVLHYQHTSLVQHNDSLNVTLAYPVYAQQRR

inhibition at 0.1 µM (DNA-PK(h)) [%] | inhibition at 0.1 µM [1] [%] | SMILES
18 | 49 | CC(C)Oc1cnc(-c2cccc3c(Cl)c([C@H](C)Nc4ncnc5[nH]ccc(=O)c45)n(-c4ccccc4)c(=O)c23)cn1 [Example 376, (S)-4-((1-(4-chloro-8-(5-isopropoxypyrazin-2-yl)-1-oxo-2-phenyl-1,2-dihydroisoquinolin-3-yl)ethyl)amino)pyrido[2,3-d]pyrimidin-5(8H)-one]
30 | 59 | C[C@H](Nc1ncnc2[nH]ccc(=O)c12)c1c(Cl)c2cccc(-c3cnc(-c4cccs4)nc3)c2c(=O)n1-c1ccccc1 [Example 377, (S)-4-((1-(4-chloro-1-oxo-2-phenyl-8-(2-(thiophen-2-yl)pyrimidin-5-yl)-1,2-dihydroisoquinolin-3-yl)ethyl)amino)pyrido[2,3-d]pyrimidin-5(8H)-one]
18 | 61 | C[C@H](Nc1ncnc2[nH]ccc(=O)c12)c1c(Cl)c2cccc(-c3cnc(-c4ccco4)nc3)c2c(=O)n1-c1ccccc1 [Example 378, (S)-4-((1-(4-chloro-8-(2-(furan-2-yl)pyrimidin-5-yl)-1-oxo-2-phenyl-1,2-dihydroisoquinolin-3-yl)ethyl)amino)pyrido[2,3-d]pyrimidin-5(8H)-one]
74 | 80 | CCc1ncc(-c2cccc3c(Cl)c([C@H](C)Nc4ncnc5[nH]ccc(=O)c45)n(-c4ccccc4)c(=O)c23)cn1 [Example 379, (S)-4-((1-(4-chloro-8-(2-ethylpyrimidin-5-yl)-1-oxo-2-phenyl-1,2-dihydroisoquinolin-3-yl)ethyl)amino)pyrido[2,3-d]pyrimidin-5(8H)-one]
19 | 76 | C[C@H](Nc1ncnc2[nH]ccc(=O)c12)c1c(Cl)c2cccc(-c3cc4ccccc4[nH]3)c2c(=O)n1-c1ccccc1 [Example 380, (S)-4-((1-(4-chloro-8-(1H-indol-2-yl)-1-oxo-2-phenyl-1,2-dihydroisoquinolin-3-yl)ethyl)amino)pyrido[2,3-d]pyrimidin-5(8H)-one]
69 | 81 | CC(C)c1ncc(-c2cccc3c(Cl)c([C@H](C)Nc4ncnc5[nH]ccc(=O)c45)n(-c4ccccc4)c(=O)c23)cn1 [Example 381, (S)-4-((1-(4-chloro-8-(2-isopropylpyrimidin-5-yl)-1-oxo-2-phenyl-1,2-dihydroisoquinolin-3-yl)ethyl)amino)pyrido[2,3-d]pyrimidin-5(8H)-one]
5 | 16 | C[C@H](Nc1ncnc2[nH]ccc(=O)c12)c1c(Cl)c2cccc(-c3cnc(F)nc3)c2c(=O)n1-c1ccccc1 [Example 382, (S)-4-((1-(4-chloro-8-(2-fluoropyrimidin-5-yl)-1-oxo-2-phenyl-1,2-dihydroisoquinolin-3-yl)ethyl)amino)pyrido[2,3-d]pyrimidin-5(8H)-one]
10 | 79 | COc1ncc(-c2cccc3cc([C@H](C)Nc4ncnc5[nH]ccc(=O)c45)n(-c4ccccc4)c(=O)c23)cn1 [Example 383, (S)-4-((1-(8-(2-methoxypyrimidin-5-yl)-1-oxo-2-phenyl-1,2-dihydroisoquinolin-3-yl)ethyl)amino)pyrido[2,3-d]pyrimidin-5(8H)-one]
40 | 85 | CCOc1ncc(-c2cccc3cc([C@H](C)Nc4ncnc5[nH]ccc(=O)c45)n(-c4ccccc4)c(=O)c23)cn1 [Example 384, (S)-4-((1-(8-(2-ethoxypyrimidin-5-yl)-1-oxo-2-phenyl-1,2-dihydroisoquinolin-3-yl)ethyl)amino)pyrido[2,3-d]pyrimidin-5(8H)-one]
4 | 75 | C[C@H](Nc1ncnc2[nH]ccc(=O)c12)c1cc2cccc(-c3cnc(C(F)(F)F)nc3)c2c(=O)n1-c1ccccc1 [Example 385, (S)-4-((1-(1-oxo-2-phenyl-8-(2-(trifluoromethyl)pyrimidin-5-yl)-1,2-dihydroisoquinolin-3-yl)ethyl)amino)pyrido[2,3-d]pyrimidin-5(8H)-one]
16 | 85 | C[C@H](Nc1ncnc2[nH]ccc(=O)c12)c1cc2cccc(-c3cnc(C(C)(C)O)nc3)c2c(=O)n1-c1ccccc1 [Example 386, (S)-4-((1-(8-(2-(2-hydroxypropan-2-yl)pyrimidin-5-yl)-1-oxo-2-phenyl-1,2-dihydroisoquinolin-3-yl)ethyl)amino)pyrido[2,3-d]pyrimidin-5(8H)-one]
58 | 72 | Cc1ccc(-c2cccc3c(Cl)c([C@H](C)Nc4ncnc5[nH]ccc(=O)c45)n(-c4ccccc4)c(=O)c23)s1 [Example 387, (S)-4-((1-(4-chloro-8-(5-methylthiophen-2-yl)-1-oxo-2-phenyl-1,2-dihydroisoquinolin-3-yl)ethyl)amino)pyrido[2,3-d]pyrimidin-5(8H)-one]
68 | 80 | C[C@H](Nc1ncnc2[nH]ccc(=O)c12)c1c(Cl)c2cccc(-c3cccs3)c2c(=O)n1-c1ccccc1 [Example 388, (S)-4-((1-(4-chloro-1-oxo-2-phenyl-8-(thiophen-2-yl)-1,2-dihydroisoquinolin-3-yl)ethyl)amino)pyrido[2,3-d]pyrimidin-5(8H)-one]
32 | 90 | C[C@H](Nc1ncnc2[nH]ccc(=O)c12)c1c(Cl)c2cccc(C(F)(F)F)c2c(=O)n1-c1ccccc1 [Example 389, (S)-4-((1-(4-chloro-1-oxo-2-phenyl-8-(trifluoromethyl)-1,2-dihydroisoquinolin-3-yl)ethyl)amino)pyrido[2,3-d]pyrimidin-5(8H)-one]
18 | 89 | C[C@H](Nc1ncnc2[nH]ccc(=O)c12)c1c(Cl)c2cccc(S(C)(=O)=O)c2c(=O)n1-c1ccccc1 [Example 390, (S)-4-((1-(4-chloro-8-(methylsulfonyl)-1-oxo-2-phenyl-1,2-dihydroisoquinolin-3-yl)ethyl)amino)pyrido[2,3-d]pyrimidin-5(8H)-one]
22 | 98 | C[C@H](Nc1ncnc2[nH]ccc(=O)c12)c1c(Cl)c2cccc(S(=O)(=O)c3ccncc3)c2c(=O)n1-c1ccccc1 [Example 391, (S)-4-((1-(4-chloro-1-oxo-2-phenyl-8-(pyridin-4-ylsulfonyl)-1,2-dihydroisoquinolin-3-yl)ethyl)amino)pyrido[2,3-d]pyrimidin-5(8H)-one]
45 | 94 | C[C@H](Nc1ncnc2[nH]ccc(=O)c12)c1c(Cl)c2cccc(-c3cnc(S(C)(=O)=O)nc3)c2c(=O)n1-c1ccccc1 [Example 392, (S)-4-((1-(4-chloro-8-(2-(methylsulfonyl)pyrimidin-5-yl)-1-oxo-2-phenyl-1,2-dihydroisoquinolin-3-yl)ethyl)amino)pyrido[2,3-d]pyrimidin-5(8H)-one]
17 | 84 | C[C@H](Nc1ncnc2[nH]ccc(=O)c12)c1c(Cl)c2cccc(S(=O)(=O)c3ccc(Cl)cc3)c2c(=O)n1-c1ccccc1 [Example 393, (S)-4-((1-(4-chloro-8-((4-chlorophenyl)sulfonyl)-1-oxo-2-phenyl-1,2-dihydroisoquinolin-3-yl)ethyl)amino)pyrido[2,3-d]pyrimidin-5(8H)-one]
15 | 12 | C[C@H](Nc1ncnc2[nH]ccc(=O)c12)c1c(Cl)c2cccc([S@+]([O-])c3ccc(OC(F)(F)F)cc3)c2c(=O)n1-c1ccccc1 [Example 395, 4-(((S)-1-(4-chloro-1-oxo-2-phenyl-8-(((R)-4-(trifluoromethoxy)phenyl)sulfinyl)-1,2-dihydroisoquinolin-3-yl)ethyl)amino)pyrido[2,3-d]pyrimidin-5(8H)-one]
46 | 29 | CCC[S@+]([O-])c1cccc2c(Cl)c([C@H](C)Nc3ncnc4[nH]ccc(=O)c34)n(-c3ccccc3)c(=O)c12 [Example 396, 4-(((S)-1-(4-chloro-1-oxo-2-phenyl-8-((S)-propylsulfinyl)-1,2-dihydroisoquinolin-3-yl)ethyl)amino)pyrido[2,3-d]pyrimidin-5(8H)-one]
34 | 94 | CCC[S@@+]([O-])c1cccc2c(Cl)c([C@H](C)Nc3ncnc4[nH]ccc(=O)c34)n(-c3ccccc3)c(=O)c12 [Example 397]
3 | 7 | C[C@H](Nc1ncnc2[nH]ccc(=O)c12)c1c(Cl)c2cccc(Sc3ccc(F)cc3)c2c(=O)n1-c1ccccc1 [Example 398, (S)-4-((1-(4-chloro-8-((4-fluorophenyl)thio)-1-oxo-2-phenyl-1,2-dihydroisoquinolin-3-yl)ethyl)amino)pyrido[2,3-d]pyrimidin-5(8H)-one]
23 | 92 | C[C@H](Nc1ncnc2[nH]ccc(=O)c12)c1c(Cl)c2cccc(S(=O)(=O)c3ccc(F)cc3)c2c(=O)n1-c1ccccc1 [Example 399, (S)-4-((1-(4-chloro-8-((4-fluorophenyl)sulfonyl)-1-oxo-2-phenyl-1,2-dihydroisoquinolin-3-yl)ethyl)amino)pyrido[2,3-d]pyrimidin-5(8H)-one]
-2 | 16 | C[C@H](Nc1ncnc2[nH]ccc(=O)c12)c1c(Cl)c2cccc(Sc3nc[nH]n3)c2c(=O)n1-c1ccccc1 [Example 400, (S)-4-((1-(8-((1H-1,2,4-triazol-3-yl)thio)-4-chloro-1-oxo-2-phenyl-1,2-dihydroisoquinolin-3-yl)ethyl)amino)pyrido[2,3-d]pyrimidin-5(8H)-one]
